Reference: publication PMC8625207, “Antikinetoplastid Activity of Sesquiterpenes Isolated from the Zoanthid Palythoa aff. clavata” (Pharmaceuticals, 2021)

What was measured:
[1] = system: epimastigotes of Trypanosoma cruzi (Y strain); test: alamarBlue activity against epimastigotes of T. cruzi; type: cell-based; conditions: for IC50: Trypanosoma cruzi, 72 h of incubation, mean with standard deviation; for Epimastigotes T. cruzi SI: selectivity index CC50/IC50
Procedure: (§1) For the anti-leishmanicidal experiments, promastigotes and amastigotes of Leishmania amazonensis strain (MHOM/BR/77/LTB0016) and promastigotes of Leishmania donovani strain (MHOM/IN/90/GE1F8R) were used, and they were maintained in RPMI 1640 medium (Gibco, Waltham, MA, USA) at 26 °C. For the trypanocidal experiments, epimastigotes of Trypanosoma cruzi (Y strain) were used, and they were maintained in liver infusion tryptose (LIT) medium supplemented with 10% of fetal bovine serum (FBS) at 26 °C. Murine macrophages J774A.1 (ATCC #TIB-67), maintained in DMEM medium at 37 °C with 5% CO2, were used for the cytotoxic activity assays.
(§2) For the activity against extracellular parasites of kinetoplastid, Leishmania and Trypanosoma parasites, in a 96-well plate, serial dilutions of the compounds were added with dilutions of 10^5 parasites per well and a 10% of alamarBlue Cell Viability Reagent® (Thermo Fisher Scientific, Waltham, MA, USA). After 72 h of incubation at 26 °C, the fluorescence of each well was measured in the EnSpire Multimode Plate Reader® (PerkinElmer, Thermo Fisher Scientific, Madrid, Spain). The inhibitory concentration 50 (IC50) was calculated by nonlinear regression analysis.

[2] = system: promastigotes of L. donovani
[3] = system: promastigotes of L. donovani; test: Chromatin condensation, Hoechst 33342/propidium iodide; type: cell-based, Leishmania donovani; conditions: IC90, 24 h
[4] = system: promastigotes of Leishmania donovani strain (MHOM/IN/90/GE1F8R); test: alamarBlue activity against promastigotes of L. donovani; type: cell-based; conditions: for IC50: Leishmania donovani, 72 h of incubation, mean with standard deviation; for Promastigotes L. donovani SI: selectivity index CC50/IC50 (macrophages J744A.1 vs parasite)
Procedure: as §1, §2

[5] = system: promastigotes of Leishmania amazonensis strain (MHOM/BR/77/LTB0016); test: alamarBlue activity against promastigotes of L. amazonensis; type: cell-based; conditions: for IC50: Leishmania amazonensis, 72 h of incubation, mean with standard deviation; for Promastigotes L. amazonensis SI: selectivity index CC50/IC50
Procedure: as §1, §2

[6] = alamarBlue cytotoxicity on murine macrophages; type: cell-based; conditions: mouse, J774A.1 macrophages; 24 h of incubation; read-out: Macrophages J744A.1 CC50
[7] = system: amastigotes of L. amazonensis; test: alamarBlue activity against intracellular amastigotes of L. amazonensis in murine macrophages; type: cell-based, Leishmania amazonensis; conditions: for IC50: Leishmania amazonensis, Macrophage, 24 h of incubation, intracellular form in murine macrophages; for Amastigotes L. amazonensis SI: selectivity index CC50/IC50
Procedure: as §1
To determinate the IC50 against the intracellular form of the parasite amastigotes of L. amazonensis, the alamarBlue colorimetric method was also used. In a 96-well plate, murine macrophages were added in a concentration of 10^4 cells per well. After adherence of the cells, 10^5 promastigotes of the parasite were added to reach 1:10 cell:parasites per well. After 24 h of incubation at 37 °C with 5% of CO2 for the internalization of the parasite, the wells were washed, and serial dilutions of the compounds were added. After an incubation of 24 h with the compounds, the wells were washed, and the macrophages were broken with a solution of SDS (Sodium dodecyl sulfate) at 0.05% for 30 s. After adding fresh RPMI medium, we added 10% of alamarBlue, and the plates were incubated at 26 °C for 96 h. Finally, the fluorescence was measured by using the EnSpire Multimode Plate Reader® (PerkinElmer, Thermo Fisher Scientific, Madrid, Spain), and the IC50 of each compound was calculated.

[8] = system: promastigotes of L. amazonensis; test: Chromatin condensation, Hoechst 33342/propidium iodide; type: cell-based, Leishmania amazonensis; conditions: IC90, 24 h
[9] = system: L. amazonensis; test: Mitochondrial membrane potential, JC-1; type: cell-based, Leishmania amazonensis; conditions: IC90, 24 h
Procedure: The alterations on the mitochondrial membrane potential were measured by using JC-1® reagent. The results were expressed in percentage of variations in the mitochondrial membrane potential relative to the untreated control.
The alterations in the mitochondrial membrane potential were determined by using the JC-1 Mitochondrial Membrane Potential Assay Kit® (Cayman Chemical, Ann Arbor, MI, USA). […] Finally, using the EnSpire Multimode Plate Reader® (PerkinElmer, Thermo Fisher Scientific, Madrid, Spain), we measured the fluorescence, and the results were expressed in the percentage relative to the negative control (without any treatment), using the ratio 595 nm/535 nm (aggregates/monomers). All of the experiments were performed in triplicate in three different days (n = 3).

[10] = system: promastigotes of L. amazonensis; test: Reactive oxygen species detection, CellROX Deep Red; type: cell-based, Leishmania amazonensis; conditions: IC90, 24 h
[11] = system: promastigotes of L. amazonensis; test: Plasmatic membrane permeability, SYTOX Green; type: cell-based, Leishmania amazonensis; conditions: IC90, 24 h
[12] = system: epimastigotes of T. cruzi; test: Chromatin condensation, Hoechst 33342/propidium iodide; type: cell-based, Trypanosoma cruzi; conditions: IC90, 24 h
[13] = system: epimastigotes of T. cruzi
[14] = system: epimastigotes of T. cruzi; test: Reactive oxygen species detection, CellROX Deep Red; type: cell-based, Trypanosoma cruzi; conditions: IC90, 24 h
[15] = system: L. amazonensis; test: ATP levels, CellTiter-Glo; type: cell-based, Leishmania amazonensis; conditions: IC90, 24 h, negative control = 100%
Procedure: (§3) The levels of ATP were measured by using CellTiter-Glo® reagent, and values of luminescence were obtained by the EnSpire Multimode Plate Reader®. Results were processed and represented in Figure 4 as the percentage of ATP relative to the negative control (without treatment) that corresponds with 100% of ATP level.
(§4) The levels of ATP in the wells were measured by using the CellTiter-Glo® Luminescent Cell Viability Assay (Promega, WI, USA). […] These volumes were transferred to a white plate, and 25 μL of kit was added to each well. After 10 min of incubation at room temperature, the luminescence was determined by using the EnSpire Multimode Plate Reader® (PerkinElmer), and the results were expressed as the percentage of production of ATP relative to the negative control (without any treatment). All of the experiments were performed in triplicate in three different days (n = 3).

[16] = system: T. cruzi; test: ATP levels, CellTiter-Glo; type: cell-based, Trypanosoma cruzi; conditions: IC90, 24 h, negative control = 100%
Procedure: as §3, §4

[17] = system: T. cruzi; set-up: method as in PMID 17950283; conditions: read-out: IC50 against T. cruzi; cited from earlier work

IC50 [1] [µM] | SMILES | Epimastigotes T. cruzi SI [1] | IC50 [4] [µM] | Promastigotes L. donovani SI [4] | IC50 [5] [µM] | Promastigotes L. amazonensis SI [5] | CC50 at 24 h [6] [µM] | Amastigotes L. amazonensis SI [7] | further results
8.88 ± 0.91 | C=C1C(=O)OC2C=C(C)CCC=C(COC(C)=O)CCC12 (mixture of isomers) [cis,trans-costunolide-14-acetate (3), cis,trans-costunolide-14-acetate] | 5.75 | 5.41 ± 1.28 | 9.43 | 8.62 ± 1 | 5.92 | 51 ± 7.54 | 2.08 | Plasmatic membrane permeability [2]: increase on the plasmatic membrane permeability; Chromatin condensation [3]: blue and red fluorescence was produced; IC50 [7]: 24.6 ± 3.64 µM
> 201 | C=C1C(=O)O[C@@H]2[C@@H]3[C@@](C)(CC[C@@H]12)[C@H](O)CC[C@]3(C)O [4b-Hydroxyarbusculin A (11), 4β-hydroxyarbusculin A] | – | > 201 | – | 76.4 ± 5.72 | >5.27 | > 403 | >25.47 | Chromatin condensation [8]: induced chromatin condensation; Mitochondrial membrane potential relative to the negative control [9]: 40.99%; Reactive oxygen species detection [10]: presence of red fluorescence; Plasmatic membrane permeability [11]: increase on the plasmatic membrane permeability; IC50 [7]: 15.8 ± 1.01 µM; Amastigotes L. amazonensis SI ([7]; listed as 4β-hydroxyarbusculin A (11)): > 25.47
13 ± 4.95 | C=C1CCC2C(=C)C(=O)OC2C=C(C)CCC1=O (stereo not drawn) [Anhydroartemorin (2), anhydroartemorin] | 13.76 | > 102 | <1.76 | 25.6 ± 5.88 | 7.00 | 179 ± 2.27 | 24.06 | Chromatin condensation [8]: induced chromatin condensation; Chromatin condensation [12]: caused chromatin condensation; Plasmatic membrane permeability [13]: increase on the plasmatic membrane permeability; Plasmatic membrane permeability [11]: increase on the plasmatic membrane permeability; Reactive oxygen species detection [14]: intense fluorescence due to ROS detection; Percentage of ATP relative to the negative control [15]: 28.76%; IC50 [7]: 7.44 ± 0.45 µM; Percentage of ATP relative to the negative control [16]: 27.17%
81 ± 12 | C=C1CCC2C(=C)C(=O)OC2C=C(C)CCC1O (stereo not drawn) [Artemorin (1), artemorin] | >4.97 | > 201 | – | 40.9 ± 2.82 | >9.85 | > 403 | >10.04 | IC50 [7]: 40.1 ± 3.44 µM
– | O=C(Cn1ccnc1[N+](=O)[O-])NCc1ccccc1 [Benznidazole, reference compound] | – | – | – | – | – | > 1540 | – | –
59.8 ± 9.76 | C=C1C(=O)O[C@H]2CC(=C)[C@H]3CCC(=C)[C@@H](O3)[C@@H](O)[C@H]12 [Dehydroxyisobadgerin (9), dehydroxyisobadgerin] | 0.84 | 34 ± 3.32 | 1.47 | 25.5 ± 3.2 | 1.96 | 50 ± 13.1 | – | –
> 89.2 | C=C1C(=O)O[C@H]2CC(=C)[C@H]3CC[C@@](C)(O)[C@@H](O3)[C@@H](O)[C@H]12 [Isobadgerin (8), isobadgerin] | <1.01 | > 89.2 | <1.01 | > 89.2 | <1.01 | 89.7 ± 3.92 | – | –
– | CCCCCCCCCCCCCCCCOP(=O)([O-])OCC[N+](C)(C)C [Miltefosine, reference compound] | – | – | 21.74 | – | 11.14 | 72.2 ± 3.06 | 23.17 | –
> 105 | C=C1CC[C@@H](C(C)C)/C=C/[C@@](C)(O)CC[C@H]1O [Nephthediol (10), (−) nephthediol] | <0.22 | > 105 | <0.22 | > 105 | <0.22 | 23.58 ± 0.21 | – | –
– | C=C1C(=O)O[C@H]2[C@H]1CC/C(C)=C/CC[C@@]1(C)O[C@@H]21 [Parthenolide (15), parthenolide] | – | – | – | – | – | – | – | IC50 [17]: 2.01 µM
58.2 ± 13.1 | C=C1CC[C@@H](O)[C@]2(C)CC[C@H]3C(=C)C(=O)O[C@@H]3[C@@H]12 [Reynosin (13), reynosin] | 1.34 | > 201 | <0.39 | 40.2 ± 8.78 | 1.94 | – | – | –
9.74 ± 2.68 | C=C1C(=O)O[C@@H]2[C@H]3C(C)=CC[C@@H](O)[C@]3(C)CC[C@@H]12 [Santamarine (12), santamarine] | 7.91 | 12.1 ± 4.67 | 6.35 | > 101 | <0.77 | – | – | –
> 69 | C=C1C[C@@H]2OC(=O)C(=C)[C@H]2[C@H](O)/C=C(\C)CCC1=O [Tamirin (7), Tamirin] | <0.34 | 4.13 ± 1.25 | 5.65 | 11.7 ± 2.52 | 1.99 | 23.3 ± 1.27 | – | –
> 94.6 | C=C1C(=O)O[C@H]2CC(=C)[C@@H](O)CC/C(C)=C/[C@@H](O)[C@H]12 [Tanachin (6), tanachin] | <1.05 | > 94.6 | <1.05 | > 94.6 | <1.05 | 99.2 ± 4.43 | – | –
> 94.6 | C=C1C(=O)O[C@@H]2/C=C(\C)[C@H](O)CC/C(C)=C/[C@H](O)[C@@H]12 [Tatridin A (4), tatridin A] | <0.34 | > 94.6 | <0.34 | > 94.6 | <0.34 | 32.4 ± 6.55 | – | –
> 81.6 | C=C1C(=O)O[C@@H]2/C=C(\C)[C@H](O)CC/C(C)=C/[C@H](OC(C)=O)[C@@H]12 [Tatridin A acetate (5), tatridin A acetate] | <0.24 | > 81.6 | <0.24 | > 81.6 | <0.24 | 19.3 ± 0.91 | – | –
